These results are taken from ChEMBL document CHEMBL5726506, “Heterocyclic kinase inhibitors” (2017).

In general, IC50 refers to the point on the concentration scale where inhibition reaches its midpoint.

A short description of the experiment: Inhibition Assay: Class I PI3-Ks can be either purchased (p110α/p85α, p110β/p85α, p110δ/p85α from Upstate, and p110γ from Sigma) or expressed as previously described (Knight et al., 2004). IC50 values are measured using either a standard TLC assay for lipid kinase activity (described below) or a high-throughput membrane capture assay. Kinase reactions are performed by preparing a reaction mixture containing kinase, inhibitor (2% DMSO final concentration), buffer (25 mM HEPES, pH 7.4, 10 mM MgCl2), and freshly sonicated phosphatidylinositol (100 μg/ml). Reactions are initiated by the addition of ATP containing 10 μCi of γ-32P-ATP to a final concentration 10 or 100 μM and allowed to proceed for 5 minutes at room temperature. For TLC analysis, reactions are then terminated by the addition of 105 l 1N HCl followed by 160 μl CHCl3:MeOH (1:1). The biphasic mixture is vortexed, briefly centrifuged, and the organic phase is transferred to a new tube using a gel loading pipette tip precoated with CHCl3. This extract is spotted on TLC plates and developed for 3-4 hours in a 65:35 solution of n-propanol:1M acetic acid. The TLC plates are then dried, exposed to a phosphorimager screen (Storm, Amersham), and quantitated. For each compound, kinase activity is measured at 10-12 inhibitor concentrations representing two-fold dilutions from the highest concentration tested (typically, 200 μM).

`CN1CCN(c2nc3ccccc3cc2Cn2nc(-c3cc(O)cc(F)c3)c3c(N)ncnc32)CC1`: the half-inhibitory concentration (IC50) was greater than 1000 nM. Turning to `Nc1nc2ccc(-c3nn(Cc4cc5ccccc5nc4-c4ccccc4C(F)(F)F)c4ncnc(N)c34)cc2[nH]1`, the IC50 is greater than 1000 nM.
